Data taken from ChEMBL document CHEMBL4804281, “STK4 inhibitors for treatment of hematologic malignancies” (2020).
Each block holds one compound with its values, some of them ahead of it.

Experiments:
Assay type in all cases: cell-based
[1] = target: Serine/threonine-protein kinase 25 (Homo sapiens) (UniProt O00506); assay: Inhibition of YSK1 in human NCI-H929 cells at 10 uM by mass spectroscopic analysis relative to control
[2] = target: T1, Inhibitor of nuclear factor kappa-B kinase subunit epsilon (Homo sapiens) (UniProt Q14164); assay: Inhibition of IKKE in human NCI-H929 cells at 10 uM by mass spectroscopic analysis relative to control
T1 sequence (whole entry): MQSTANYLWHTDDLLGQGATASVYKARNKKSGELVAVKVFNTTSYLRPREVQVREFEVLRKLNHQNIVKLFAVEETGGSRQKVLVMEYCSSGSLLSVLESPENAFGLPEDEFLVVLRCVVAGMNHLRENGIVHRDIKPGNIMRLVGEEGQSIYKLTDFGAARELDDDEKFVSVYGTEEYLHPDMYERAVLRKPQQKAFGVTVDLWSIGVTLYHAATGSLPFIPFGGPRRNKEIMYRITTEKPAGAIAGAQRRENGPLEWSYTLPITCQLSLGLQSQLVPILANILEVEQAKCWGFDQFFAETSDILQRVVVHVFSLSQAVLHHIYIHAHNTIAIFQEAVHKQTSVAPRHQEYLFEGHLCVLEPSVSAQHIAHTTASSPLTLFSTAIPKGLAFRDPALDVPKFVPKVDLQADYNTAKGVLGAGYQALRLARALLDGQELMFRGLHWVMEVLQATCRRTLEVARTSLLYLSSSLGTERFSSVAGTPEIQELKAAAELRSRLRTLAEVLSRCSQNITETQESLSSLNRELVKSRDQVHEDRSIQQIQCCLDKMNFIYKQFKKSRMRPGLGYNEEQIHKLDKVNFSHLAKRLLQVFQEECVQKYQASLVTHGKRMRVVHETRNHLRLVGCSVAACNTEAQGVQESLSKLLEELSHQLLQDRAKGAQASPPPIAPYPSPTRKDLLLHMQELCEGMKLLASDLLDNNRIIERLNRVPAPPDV

[3] = target: Rho-associated protein kinase 2 (Homo sapiens) (UniProt O75116); assay: Inhibition of ROCK2 in human NCI-H929 cells at 10 uM by mass spectroscopic analysis relative to control
[4] = target: 5'-AMP-activated protein kinase catalytic subunit alpha-1 (Homo sapiens) (UniProt Q13131); assay: Inhibition of AMPKa1 in human NCI-H929 cells at 10 uM by mass spectroscopic analysis relative to control
[5] = target: Cyclin-dependent kinase 17 (Homo sapiens) (UniProt Q00537); assay: Inhibition of PCTAIRE2 in human NCI-H929 cells at 10 uM by mass spectroscopic analysis relative to control
[6] = target: T2, Tyrosine-protein kinase Mer (Homo sapiens) (UniProt Q12866); assay: Inhibition of MER in human NCI-H929 cells at 10 uM by mass spectroscopic analysis relative to control
T2 sequence (whole entry): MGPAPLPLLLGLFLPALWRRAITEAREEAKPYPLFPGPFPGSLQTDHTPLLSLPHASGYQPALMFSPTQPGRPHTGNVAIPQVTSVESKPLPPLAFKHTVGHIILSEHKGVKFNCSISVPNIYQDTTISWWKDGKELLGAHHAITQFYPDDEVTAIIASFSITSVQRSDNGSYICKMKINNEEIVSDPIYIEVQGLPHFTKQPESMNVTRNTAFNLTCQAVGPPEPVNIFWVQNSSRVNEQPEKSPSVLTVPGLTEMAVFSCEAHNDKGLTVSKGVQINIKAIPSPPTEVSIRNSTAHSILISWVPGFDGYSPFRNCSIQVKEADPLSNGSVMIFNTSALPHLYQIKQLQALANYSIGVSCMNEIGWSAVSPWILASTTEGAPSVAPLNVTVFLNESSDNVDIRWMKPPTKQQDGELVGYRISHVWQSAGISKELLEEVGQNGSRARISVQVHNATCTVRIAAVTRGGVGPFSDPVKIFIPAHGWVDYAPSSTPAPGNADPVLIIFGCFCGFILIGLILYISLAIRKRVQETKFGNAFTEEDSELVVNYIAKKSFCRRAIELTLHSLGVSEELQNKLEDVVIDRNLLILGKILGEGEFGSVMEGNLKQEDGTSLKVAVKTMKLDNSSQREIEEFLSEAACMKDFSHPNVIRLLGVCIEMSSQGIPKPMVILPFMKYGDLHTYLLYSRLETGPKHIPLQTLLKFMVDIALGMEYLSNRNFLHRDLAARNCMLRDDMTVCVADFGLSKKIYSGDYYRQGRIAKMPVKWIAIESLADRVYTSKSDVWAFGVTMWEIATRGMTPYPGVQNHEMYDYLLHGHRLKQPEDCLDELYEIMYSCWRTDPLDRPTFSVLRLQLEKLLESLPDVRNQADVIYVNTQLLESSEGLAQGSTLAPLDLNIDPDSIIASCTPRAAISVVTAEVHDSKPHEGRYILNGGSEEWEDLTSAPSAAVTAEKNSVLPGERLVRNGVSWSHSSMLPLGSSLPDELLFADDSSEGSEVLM

[7] = target: T3, Serine/threonine-protein kinase TAO3 (Homo sapiens) (UniProt Q9H2K8); assay: Inhibition of TAO3 in human NCI-H929 cells at 10 uM by mass spectroscopic analysis relative to control
T3 sequence (whole entry): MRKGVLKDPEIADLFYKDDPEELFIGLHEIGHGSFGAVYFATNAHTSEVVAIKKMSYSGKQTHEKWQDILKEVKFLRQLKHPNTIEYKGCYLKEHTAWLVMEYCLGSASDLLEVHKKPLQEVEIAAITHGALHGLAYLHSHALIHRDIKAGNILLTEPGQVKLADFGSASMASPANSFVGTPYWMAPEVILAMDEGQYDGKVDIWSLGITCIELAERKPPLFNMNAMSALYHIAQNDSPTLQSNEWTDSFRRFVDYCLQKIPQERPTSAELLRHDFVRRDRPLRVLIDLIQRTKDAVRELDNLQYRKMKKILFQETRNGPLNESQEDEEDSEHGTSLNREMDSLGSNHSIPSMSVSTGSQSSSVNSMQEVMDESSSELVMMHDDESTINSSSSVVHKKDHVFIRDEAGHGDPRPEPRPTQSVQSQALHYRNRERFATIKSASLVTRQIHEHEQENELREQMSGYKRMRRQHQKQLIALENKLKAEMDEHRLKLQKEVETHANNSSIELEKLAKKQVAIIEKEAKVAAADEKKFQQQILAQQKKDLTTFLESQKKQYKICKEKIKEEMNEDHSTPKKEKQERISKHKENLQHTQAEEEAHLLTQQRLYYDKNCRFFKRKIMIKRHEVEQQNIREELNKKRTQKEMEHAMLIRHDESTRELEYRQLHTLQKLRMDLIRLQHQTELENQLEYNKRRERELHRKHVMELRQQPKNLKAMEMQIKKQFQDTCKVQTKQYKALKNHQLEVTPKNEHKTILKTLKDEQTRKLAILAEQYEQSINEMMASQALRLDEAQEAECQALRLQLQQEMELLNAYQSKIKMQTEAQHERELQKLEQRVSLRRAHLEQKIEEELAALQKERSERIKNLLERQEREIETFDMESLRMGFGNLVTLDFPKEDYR

Sequence of 5'-AMP-activated protein kinase catalytic subunit alpha-1 (Homo sapiens) (Q13131 whole entry, looked up): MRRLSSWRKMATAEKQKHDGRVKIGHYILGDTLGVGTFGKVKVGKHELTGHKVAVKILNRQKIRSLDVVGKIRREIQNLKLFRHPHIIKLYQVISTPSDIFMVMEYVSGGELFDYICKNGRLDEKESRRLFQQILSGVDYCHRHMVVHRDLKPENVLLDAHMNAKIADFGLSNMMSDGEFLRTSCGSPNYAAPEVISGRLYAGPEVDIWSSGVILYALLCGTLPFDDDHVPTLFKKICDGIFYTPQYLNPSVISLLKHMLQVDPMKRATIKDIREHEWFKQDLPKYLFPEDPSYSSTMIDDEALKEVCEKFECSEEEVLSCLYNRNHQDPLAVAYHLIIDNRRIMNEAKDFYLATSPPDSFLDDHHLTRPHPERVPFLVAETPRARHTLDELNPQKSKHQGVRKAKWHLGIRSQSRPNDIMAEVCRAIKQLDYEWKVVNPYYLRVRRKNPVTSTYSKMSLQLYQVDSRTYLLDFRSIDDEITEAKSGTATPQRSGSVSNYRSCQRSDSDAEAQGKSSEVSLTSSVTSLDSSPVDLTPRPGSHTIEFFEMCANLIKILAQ
Sequence of Cyclin-dependent kinase 17 (Homo sapiens) (Q00537 whole entry, looked up): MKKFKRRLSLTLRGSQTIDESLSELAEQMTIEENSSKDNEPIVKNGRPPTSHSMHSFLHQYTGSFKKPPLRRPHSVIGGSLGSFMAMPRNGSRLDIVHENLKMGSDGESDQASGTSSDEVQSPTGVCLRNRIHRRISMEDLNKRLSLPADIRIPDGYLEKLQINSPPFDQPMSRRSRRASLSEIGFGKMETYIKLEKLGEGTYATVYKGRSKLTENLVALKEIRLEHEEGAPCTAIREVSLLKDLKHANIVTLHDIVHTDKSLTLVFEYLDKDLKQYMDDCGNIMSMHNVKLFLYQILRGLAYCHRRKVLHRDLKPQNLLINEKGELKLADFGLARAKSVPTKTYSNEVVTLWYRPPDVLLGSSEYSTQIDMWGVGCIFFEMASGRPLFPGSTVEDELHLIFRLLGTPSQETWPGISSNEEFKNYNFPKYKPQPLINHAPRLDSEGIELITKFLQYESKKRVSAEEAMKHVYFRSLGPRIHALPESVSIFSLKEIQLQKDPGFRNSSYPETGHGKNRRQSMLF
Sequence of Serine/threonine-protein kinase 25 (Homo sapiens) (O00506 whole entry, looked up): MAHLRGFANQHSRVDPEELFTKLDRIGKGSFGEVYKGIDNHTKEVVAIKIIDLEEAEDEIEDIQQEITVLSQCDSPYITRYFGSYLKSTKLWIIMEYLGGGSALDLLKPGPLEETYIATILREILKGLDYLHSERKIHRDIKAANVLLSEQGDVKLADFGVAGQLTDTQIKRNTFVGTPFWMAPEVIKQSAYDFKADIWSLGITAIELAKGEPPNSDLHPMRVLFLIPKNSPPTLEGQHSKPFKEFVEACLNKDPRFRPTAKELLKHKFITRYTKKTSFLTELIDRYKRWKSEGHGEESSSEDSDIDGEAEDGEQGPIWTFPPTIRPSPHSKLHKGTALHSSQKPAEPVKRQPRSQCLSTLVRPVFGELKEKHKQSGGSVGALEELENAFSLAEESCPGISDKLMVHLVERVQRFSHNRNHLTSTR
Sequence of Rho-associated protein kinase 2 (Homo sapiens) (O75116 whole entry, looked up): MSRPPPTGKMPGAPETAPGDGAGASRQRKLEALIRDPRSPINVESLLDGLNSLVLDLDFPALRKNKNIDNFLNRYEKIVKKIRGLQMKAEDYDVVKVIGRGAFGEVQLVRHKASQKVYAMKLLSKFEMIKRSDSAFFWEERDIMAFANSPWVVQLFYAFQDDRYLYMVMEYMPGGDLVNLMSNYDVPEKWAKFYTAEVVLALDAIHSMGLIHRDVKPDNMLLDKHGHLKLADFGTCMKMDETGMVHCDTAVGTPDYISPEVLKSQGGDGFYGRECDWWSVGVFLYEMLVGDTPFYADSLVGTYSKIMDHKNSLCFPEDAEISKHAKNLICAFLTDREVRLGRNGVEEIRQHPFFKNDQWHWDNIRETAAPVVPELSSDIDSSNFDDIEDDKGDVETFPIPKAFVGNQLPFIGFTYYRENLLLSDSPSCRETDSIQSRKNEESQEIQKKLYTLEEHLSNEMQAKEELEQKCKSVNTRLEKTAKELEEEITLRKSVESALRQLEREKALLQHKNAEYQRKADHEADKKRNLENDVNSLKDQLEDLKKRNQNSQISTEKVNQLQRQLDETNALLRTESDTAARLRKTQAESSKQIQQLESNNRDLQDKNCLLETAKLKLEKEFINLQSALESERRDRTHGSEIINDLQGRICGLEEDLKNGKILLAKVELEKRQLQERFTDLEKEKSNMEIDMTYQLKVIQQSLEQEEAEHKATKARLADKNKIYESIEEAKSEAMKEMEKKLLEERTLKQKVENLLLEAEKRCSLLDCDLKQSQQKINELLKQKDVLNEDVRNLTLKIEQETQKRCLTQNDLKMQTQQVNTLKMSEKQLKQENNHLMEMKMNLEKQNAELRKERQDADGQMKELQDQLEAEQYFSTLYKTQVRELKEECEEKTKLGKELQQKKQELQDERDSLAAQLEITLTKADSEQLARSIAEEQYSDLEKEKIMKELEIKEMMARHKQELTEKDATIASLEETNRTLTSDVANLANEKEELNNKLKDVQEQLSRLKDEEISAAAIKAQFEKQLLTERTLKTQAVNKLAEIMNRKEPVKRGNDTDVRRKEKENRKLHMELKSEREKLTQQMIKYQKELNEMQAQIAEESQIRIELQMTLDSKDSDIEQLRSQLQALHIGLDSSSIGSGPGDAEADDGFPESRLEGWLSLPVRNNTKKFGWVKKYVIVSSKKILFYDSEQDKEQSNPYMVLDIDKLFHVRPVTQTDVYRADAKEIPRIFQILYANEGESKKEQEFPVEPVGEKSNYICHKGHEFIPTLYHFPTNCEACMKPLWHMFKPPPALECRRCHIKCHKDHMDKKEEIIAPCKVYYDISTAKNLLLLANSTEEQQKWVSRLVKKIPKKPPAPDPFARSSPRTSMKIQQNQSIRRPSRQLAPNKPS

SMILES: Nc1ncc(-c2cccc([N+](=O)[O-])c2F)cc1-c1ccc2c(c1)CCNC2=O
- inhibition [1]: 0%
- inhibition [2]: 0%
- inhibition [3]: 0%

SMILES: CN(C1CC1)S(=O)(=O)c1ccc(-c2cnc(N)c(-c3ccc4c(c3)CCNC4=O)c2)c(F)c1
- inhibition [4]: 0%
- inhibition [1]: < 90%
- inhibition [2]: 0%
- inhibition [3]: 0%

SMILES: Nc1ncc(-c2cccc3ncsc23)cc1-c1ccc2c(c1)CCNC2=O
- inhibition [4]: 0%
- inhibition [1]: 0%
- inhibition [2]: 0%
- inhibition [3]: 0%
- inhibition [7]: 0%

Second part, the compound after the results:

- inhibition [4]: 0%
- inhibition [1]: < 75%
- inhibition [2]: 0%
- inhibition [5]: 0%
- inhibition [6]: 0%
SMILES: Nc1ncc(-c2ccc(NS(=O)(=O)C3CC3)cc2F)cc1-c1ccc2c(c1)CCNC2=O

- inhibition [4]: 0%
- inhibition [1]: 0%
- inhibition [2]: 0%
- inhibition [5]: 0%
- inhibition [7]: 0%
- inhibition [6]: 0%
SMILES: COc1cc(NS(=O)(=O)C2CC2)ccc1-c1cnc(N)c(-c2ccc3c(c2)CCNC3=O)c1

- inhibition [5]: 0%
- inhibition [7]: 0%
- inhibition [6]: 0%
SMILES: Nc1ncc(-c2ccc(NS(=O)(=O)C3CC3)cc2OC2CCCCC2)cc1-c1ccc2c(c1)CCNC2=O
